Where “and” joins values, the source holds several entries; their conditions need not be identical. Equal entries are not always repeated. Inconclusive results and toxic doses are left out. The calls were made as follows: active = survival T/C of 150% or more; inactive = T/C below 125% in these data.
Tested on: CD2F1 mice, L1210 leukemia ip, survival T/C
Experiment: NCI In Vivo Anticancer Drug Screen. Data for tumor model L1210 Leukemia (intraperitoneal) in CD2F1 (CDF1) mice
Settings: endpoint: mean survival time, higher = longer survival
Procedure, shortened: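 Transplantable tumor in mice; compound-treated vs vehicle-treated groups. Read-out = treated/control ratio of the measured endpoint.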

[1] = dose: 25.0 mg/kg/injection, schedule: Q04DX002 (ip), vehicle: saline with Tween-80
[2] = dose: 100.0 mg/kg/injection, schedule: Q01DX009 (ip), vehicle: saline with Tween-80
[3] = dose: 100.0 mg/kg/injection, schedule: Q01DX001 (ip), vehicle: saline with Tween-80
[4] = dose: 100.0 mg/kg/injection, schedule: Q04DX002 (ip), vehicle: saline with Tween-80
[5] = dose: 100.0 mg/kg/injection, schedule: Q04DX003 (ip), vehicle: saline with Tween-80
[6] = dose: 200.0 mg/kg/injection, schedule: Q01DX001 (ip), vehicle: saline with Tween-80
[7] = dose: 200.0 mg/kg/injection, schedule: Q01DX009 (ip), vehicle: saline with Tween-80
[8] = dose: 200.0 mg/kg/injection, schedule: Q04DX002 (ip), vehicle: saline with Tween-80
[9] = dose: 200.0 mg/kg/injection, schedule: Q04DX003 (ip), vehicle: saline with Tween-80
[10] = dose: 400.0 mg/kg/injection, schedule: Q01DX001 (ip), vehicle: saline with Tween-80
[11] = dose: 400.0 mg/kg/injection, schedule: Q04DX002 (ip), vehicle: saline with Tween-80
[12] = dose: 400.0 mg/kg/injection, schedule: Q04DX003 (ip), vehicle: saline with Tween-80

Measured: T/C

CCOC(=O)Nc1cc(Nc2ccccc2)c2[nH]cnc2n1
inactive: dose: 12.5 mg/kg/injection, schedule: Q01DX001 (ip), vehicle: Klucel (hydroxypropylcellulose) (HPC) 96 % of control | dose: 25.0 mg/kg/injection, schedule: Q01DX001 (ip), vehicle: Klucel (hydroxypropylcellulose) (HPC) 93 % of control | dose: 50.0 mg/kg/injection, schedule: Q01DX001 (ip), vehicle: Klucel (hydroxypropylcellulose) (HPC) 93 % of control | dose: 100.0 mg/kg/injection, schedule: Q01DX001 (ip), vehicle: Klucel (hydroxypropylcellulose) (HPC) 93 % of control | dose: 200.0 mg/kg/injection, schedule: Q01DX001 (ip), vehicle: Klucel (hydroxypropylcellulose) (HPC) 95 % of control | dose: 400.0 mg/kg/injection, schedule: Q01DX001 (ip), vehicle: Klucel (hydroxypropylcellulose) (HPC) 93 % of control

O=CO.[Co]
inactive: dose: 5.0 mg/kg/injection, schedule: Q01DX001 (ip), vehicle: saline 106 % of control | dose: 10.0 mg/kg/injection, schedule: Q01DX001 (ip), vehicle: saline 103 % of control | dose: 20.0 mg/kg/injection, schedule: Q01DX001 (ip), vehicle: saline 106 % of control | dose: 40.0 mg/kg/injection, schedule: Q01DX001 (ip), vehicle: saline 100 % of control

c1ccc(C[As+](c2ccccc2)(c2ccccc2)c2ccccc2)cc1
inactive: [1] 96 % of control

O=C1CCC/C1=C/c1ccco1
inactive: dose: 25.0 mg/kg/injection, schedule: Q01DX009 (ip), vehicle: saline with Tween-80 93 % of control | dose: 50.0 mg/kg/injection, schedule: Q01DX009 (ip), vehicle: saline with Tween-80 95 % of control | [2] 86 % of control and 90 % of control

CCC(C)(O)C(C)N(C)C1CCCCC1 (stereo not given)
inactive: dose: 100.0 mg/kg/injection, schedule: Q04DX003 (ip), vehicle: saline 97 % of control and 100 % of control | dose: 200.0 mg/kg/injection, schedule: Q04DX003 (ip), vehicle: saline 100 % of control and 97 % of control

COc1ccc(NC(=O)Nc2ccc([N+](=O)[O-])cc2OC)c(Cl)c1
inactive: [1] 88 % of control and 101 % of control | dose: 50.0 mg/kg/injection, schedule: Q04DX002 (ip), vehicle: saline with Tween-80 95 % of control and 103 % of control | [3] 94 % of control | [2] 88 % of control and 95 % of control | [4] 95 % of control | [5] 97 % of control | [6] 101 % of control | [7] 88 % of control and 97 % of control | [8] 93 % of control | [9] 95 % of control | [10] 86 % of control and 91 % of control | dose: 400.0 mg/kg/injection, schedule: Q01DX009 (ip), vehicle: saline with Tween-80 90 % of control and 100 % of control | [11] 98 % of control | [12] 101 % of control

Cc1ccc(N=Nc2ccc(N(C)C)cc2)c2cccnc12
inactive: [2] 104 % of control

CCOc1cc(C)cc(C(=O)O)c1
inactive: [4] 97 % of control | [8] 90 % of control | [11] 97 % of control

CNCC(=O)NCCCCCCCCCCNC(=O)CNC
inactive: dose: 12.5 mg/kg/injection, schedule: Q01DX010 (ip), vehicle: saline 100 % of control | dose: 25.0 mg/kg/injection, schedule: Q01DX010 (ip), vehicle: saline 101 % of control | dose: 50.0 mg/kg/injection, schedule: Q01DX010 (ip), vehicle: saline 97 % of control | dose: 100.0 mg/kg/injection, schedule: Q01DX010 (ip), vehicle: saline 95 % of control

Nc1cccc(CCCCc2ccc(Cl)c(S(=O)(=O)F)c2)c1
inactive: [2] 94 % of control | [5] 106 % of control | [7] 97 % of control | [9] 106 % of control | [12] 108 % of control

O=P1(N(CCCl)CCCl)NCC2(O1)C1CC3CC(C1)CC2C3 (stereo not given)
inactive: dose: 15.6 mg/kg/injection, schedule: Q01DX001 (ip), vehicle: distilled water + Tween-80 101 % of control | dose: 31.3 mg/kg/injection, schedule: Q01DX001 (ip), vehicle: distilled water + Tween-80 96 % of control | dose: 62.5 mg/kg/injection, schedule: Q01DX001 (ip), vehicle: distilled water + Tween-80 101 % of control | dose: 125.0 mg/kg/injection, schedule: Q01DX001 (ip), vehicle: distilled water + Tween-80 96 % of control | dose: 250.0 mg/kg/injection, schedule: Q01DX001 (ip), vehicle: distilled water + Tween-80 96 % of control | dose: 500.0 mg/kg/injection, schedule: Q01DX001 (ip), vehicle: distilled water + Tween-80 91 % of control

Cc1c([N+](=O)[O-])cc(Cl)n[n+]1[O-]
inactive: dose: 3.13 mg/kg/injection, schedule: Q04DX002 (ip), vehicle: saline with Tween-80 101 % of control | dose: 6.25 mg/kg/injection, schedule: Q04DX002 (ip), vehicle: saline with Tween-80 97 % of control | dose: 12.5 mg/kg/injection, schedule: Q04DX002 (ip), vehicle: saline with Tween-80 96 % of control

CC(C)CCCC(C)[C@@H]1CCC2[C@H]3CCC4(C)CC5=C(C[C@@]4(C)C3CC[C@]21C)C(=O)CC1C2CCCCC2CCN51 (stereo not given in full)
inactive: [3] 102 % of control | [6] 90 % of control | [10] 90 % of control

From PubChem BioAssay AID256 (DTP/NCI, 2004)
